Data set [1] relates to DPP8. Also noted: method as in Lankas et al., 2005. To be noted: ref Lankas et al., 2005; cited from earlier work.
Data set [2] concerns PKC. The experiment in a line: PKC activity assay in HL-1 cells. It is filed as cell-based, murine. How it is done:
(§1) HL-1 cells (a murine cardiomyocyte cell line, Sigma-Aldrich, Vienna, Austria) were cultured in fibronectin (0.5% [w/v])/gelatin (0.02% [w/v]) coated flasks and maintained in Claycomb medium (Sigma-Aldrich) ([Claycomb et al., 1998]) containing 10% (v/v) fetal bovine serum (FBS, Thermo Fisher Scientific, IL, United States), 0.1 mM norepinephrine, 2 mM L-glutamine, 100 IU/ml penicillin and 100 μg/ml streptomycin (Sigma-Aldrich), and kept at 37°C under 5% CO2, as previously described ([Scheruebel et al., 2014]).
(§2) HL-1 cells were transfected with siRNAs (four different constructs) specific for DPP8 or DPP9 (40 nM each, Qiagen), or scrambled negative control siRNA (40 nM si-scr; Allstars negative control siRNA, Qiagen) ([Koyani et al., 2014]). The siRNA transfection was performed using Lipofectamine 3000 (Invitrogen) according to the supplier’s manual. Briefly, HL-1 (50% confluent) were transfected with 1 ml medium (composition of medium is given above, without FBS and antibiotics) containing 2 μl of Lipofectamine 3000 and the respective siRNA for 6 h at 37°C. Transfection medium was replaced with medium (containing FBS and antibiotics) and cells were grown for another 24 h. The mRNA expression levels of silenced genes were measured using qPCR (see above).
Estimation of active PKC was performed using a PKC kinase activity kit (ADI-EKS-420A, Enzo Life Sciences, NY, United States) according to the manufacturer’s protocol.

For data set [3], the system named is CaMKII and PLB. The data set can be described thus: Western blot total CaMKII and PLB expression. It is filed as cell-based, murine. To be noted: HL-1 cells, 2 μM, time course. The protocol:
as §1
HL-1 cells or mouse left ventricle (LV) were lysed in ice-cold lysis buffer (containing in mM: HEPES 50, NaCl 150, EDTA 1, Na4P2O7 10, Na3VO4 2, NaF 10, 1% [v/v] Triton X-100, 10% [v/v] glycerol, pH 7.4, Sigma-Aldrich) containing a Protease Phosphatase Inhibitor Cocktail (Thermo Fisher Scientific). Pellets were separated by centrifugation at 13,000 rpm (4°C, 10 min). Protein estimation of whole cell was performed using BCA protein assay kit (Thermo Fisher Scientific). Whole cell protein lysates (50 μg) were added to 10 μl of NuPAGE LDS sample buffer (Invitrogen) containing 2 μl of NuPAGE sample reducing agent (Invitrogen). After heating for 10 min at 70°C, proteins were separated by electrophoresis on NuPAGE 4–12% Bis-Tris gel (Invitrogen) and transferred to nitrocellulose membranes (Invitrogen, 0.2 μm) ([Jain et al., 2015]). […]
A general note: In western blotting, separated proteins are transferred to a membrane and probed.

In data set [4] the test system is CaMKII. The experiment in a line: Western blot pCaMKII (T286). It is filed as cell-based, murine. To be noted: HL-1 cells. The protocol:
as §1
(§3) HL-1 cells or mouse left ventricle (LV) were lysed in ice-cold lysis buffer (containing in mM: HEPES 50, NaCl 150, EDTA 1, Na4P2O7 10, Na3VO4 2, NaF 10, 1% [v/v] Triton X-100, 10% [v/v] glycerol, pH 7.4, Sigma-Aldrich) containing a Protease Phosphatase Inhibitor Cocktail (Thermo Fisher Scientific). Pellets were separated by centrifugation at 13,000 rpm (4°C, 10 min). Protein estimation of whole cell was performed using BCA protein assay kit (Thermo Fisher Scientific). Whole cell protein lysates (50 μg) were added to 10 μl of NuPAGE LDS sample buffer (Invitrogen) containing 2 μl of NuPAGE sample reducing agent (Invitrogen). After heating for 10 min at 70°C, proteins were separated by electrophoresis on NuPAGE 4–12% Bis-Tris gel (Invitrogen) and transferred to nitrocellulose membranes (Invitrogen, 0.2 μm) ([Jain et al., 2015]). Membranes were blocked with 5% (w/v) non-fat milk in Tris-buffered saline containing Tween 20 (TBST, 25°C, 2 h) and incubated with primary antibodies overnight at 4°C. The following primary antibodies (diluted in 5% [w/v] BSA-TBST) were used: phospho-CaMKII (pCaMKII, T286, 1:1000, Abcam, ab32678), phospho-PLB (pPLB, T17, 1:5000, Badrilla, A010-13), DPP8 (1:500, Santa Cruz, sc-376399), DPP9 (1:500, Santa Cruz, sc-271634), CaMKII (1:500, Santa Cruz, sc-9035), and PLB (1:2000, Thermo Fisher Scientific, MA3-922). After washing, the membranes were incubated with HRP-conjugated goat anti-mouse IgG (1:10,000, Cell Signaling, 7076) or goat anti-rabbit IgG (1:10,000, Cell Signaling, 7074) (25°C, 2 h). Immunoreactive bands were visualized using Immobilon Western Chemiluminescent HRP substrate (Merck Millipore, Vienna, Austria) and developed by Bio-Rad ChemiDoc MP Imaging System. For normalization, membranes were stripped with stripping buffer (58.4 g/l NaCl, 7.5 g/l glycine, pH 2.15), blocked and incubated with a primary antibody against glyceraldehyde 3-phosphate dehydrogenase (GAPDH, 1:1000, Santa Cruz, sc-25778). Densitometric evaluation of immunoreactive bands was performed using Image Lab 4.1 software.
as §2

Data set [5] has as its system PLB. The data set can be described thus: Western blot pPLB (T17). The data set is classed as cell-based, murine. The following applies: HL-1 cells. How it is done:
as §1, §3, §2

The subject of data set [6] is DPP9. Also noted: method as in Lankas et al., 2005. The following applies: ref Lankas et al., 2005; cited from earlier work.
Data set [7] relates to mouse ventricular cardiomyocytes. The experiment in a line: Ca2+ transient (CaT) measurement. It is filed as cell-based. To be noted: 2 μM, 2 h, 1 Hz. The protocol:
(§4) Cardiomyocytes were isolated from adult mice (14–18 weeks old, either sex). The experimental procedure and number of used animals were approved by the ethics committee of the Federal Ministry of Science, Research and Economy of the Republic of Austria (BMWF-66.010/0038-V/3b/2018). Mice were euthanized (40 mg/kg ketamine and 10 mg/kg xylazine), hearts were quickly removed and cardiomyocytes were isolated as previously described ([Ackers-Johnson et al., 2016]) using collagenase 2 and 4 (Worthington Biochemical Corporation, NJ, United States). After isolation cardiomyocytes were kept in standard external solution (containing in mM: NaCl 137, KCl 5.4, CaCl2 1.8, MgCl2 1.1, NaHCO3 2.2, NaH2PO4 0.4, HEPES/Na^+ 10, D(+)-glucose 5.6, pH 7.4 adjusted with NaOH). All experiments were performed on the day of isolation.
CaT was assessed by field stimulation (platinum electrode distance: 1 cm; pulse duration: 5 ms; suprathreshold pulse amplitude: 4 V/cm) at a frequency of 1 Hz using a video-based sarcomere length detection system (IonOptix Corporation, MA, United States) at 37°C. Fluorescence intensities were measured at 340 and 380 nm of excitation and at 510 nm of emission wavelengths using a dual excitation light source. The F340/F380 ratio was used as an index of cytosolic Ca^2+ concentration and to calculate CaT relaxation tau (τCaT). Data were analyzed using Clampfit 10.2 (Molecular Devices) and LabChart 7.0 (peak analysis module, ADInstruments Ltd., Oxford, United Kingdom).

On the set-up of data set [8]: method as in Udenfriend et al., 1972. To be noted: unbound, aqueous solution; ref Udenfriend et al., 1972; cited from earlier work.
For data set [9], the system named is mouse ventricular cardiomyocytes. The data set can be described thus: patch clamp action potential recording. It is filed as cell-based. To be noted: 2 μM, 5 min superfusion, 1 Hz. The protocol:
as §4
Action potentials (APs) were recorded in the whole cell configuration of the patch clamp technique using Axopatch 200B amplifier (Molecular Devices, CA, United States) and the A/D – D/A converters Digidata 1322A (Molecular Devices). […] Ten consecutive APs were analyzed using LabChart 7.0 (Cardiac action potential analysis module, ADInstruments Ltd., Oxford, United Kingdom).
(In general: Patch clamp records ionic current or voltage across a cell membrane.)

The subject of data set [10] is PKC. Also noted: method as in Dai et al., 2014. To be noted: THP-1 macrophages; ref Dai et al., 2014; cited from earlier work.
A short description of data set [11]: plasma Cmax after single dose. The data set is classed as in vivo. The following applies: human, 5 mg single dose, equivalent of 24 ng/ml (Onglyza, 2016), read-out: plasma Cmax, molar equivalent.
Details of data set [12]: method as in Onglyza, 2016. The following applies: 5 mg single dose; ref Onglyza, 2016; cited from earlier work.
On the set-up of data set [13]: method as in Koyani et al., 2017; Lee et al., 2016; He et al., 2009. The following applies: in vitro studies; ref Koyani et al., 2017; Lee et al., 2016; He et al., 2009; cited from earlier work.
Data set [14] has as its system HL-1 cardiomyocytes. The data set can be described thus: fluorescence microscopy of fluorescamine adduct uptake. The following applies: HL-1 cells, drug-fluorescamine 2–2 μM. The data set is classed as cell-based, murine. How it is done: as §1, with “2014]). […] Fluorescence images were captured at excitation/emission wavelengths of 390/470 nm.” for “2014]).”
On the set-up of data set [15]: method as in Green et al., 2015. To be noted: TECOS trial, T2DM patients; ref Green et al., 2015; cited from earlier work.
In data set [16] the test system is PKC. Also noted: method as in Hasegawa et al., 2016. To be noted: human endothelial cells; ref Hasegawa et al., 2016; cited from earlier work.

The structures appear in SMILES notation.

As for `CC[C@@H](C)[C@H](N)C(=O)N1Cc2ccccc2C1.Cl` [TC-E 5007], the IC50 (usually the concentration that gives 50% inhibition) in data set [1] was […]; in [6], […]. The “reduced PKC activity, time from which observed” value in data set [2] (2 μM) was at least 10 min. Moreover, the “total CaMKII and PLB protein levels” value in [3] is recorded as “did not affect”. Besides, the “reduced CaMKII phosphorylation (T286), time from which observed” value in [4] (2 μM) is listed as at least 30 min. Also, the “reduced pPLB (T17), time from which observed” value in [5] (2 μM) is at least 60 min. For the same molecule, the “CaT relaxation (reciprocal of τCaT)” value in data set [7] is on record as “impaired cardiac relaxation”.

As to `O=C1OC2(OC=C(c3ccccc3)C2=O)c2ccccc21` (stereo not shown) [fluorescamine], the half-life (usually how long it takes for the measured level to halve) in [8] was 5 to 10 s.

As for `N#C[C@@H]1C[C@@H]2C[C@@H]2N1C(=O)[C@@H](N)C12CC3CC(CC(O)(C3)C1)C2` [saxagliptin], the “action potential duration (APD, 90% repolarization)” value in [9] is reported as “prolongation of APD”. The “reduced PKC activity, time from which observed” value in data set [2] (2 μM) was at least 2.5 min. The “efficacy on PKC activity in DPP8/DPP9 silenced cardiomyocytes” value in [2] (2 μM, 10 min) is given as “significantly abolished in DPP9 (but not DPP8) silenced cardiomyocytes”. Besides, the “reduced PKC activity, concentration from which observed” value in data set [2] (10 min) was at least 1 µM. Also, in data set [4] (2 μM), the “reduced CaMKII phosphorylation (T286), time from which observed” value was at least 2.5 min. Further, in data set [4] (2 μM, 5 min, si-DPP8), the “pCaMKII expression in DPP8 knocked down cardiomyocytes” value is “effectively inhibited”. Also, the “inhibition of CaMKII phosphorylation, concentration from which observed” value in data set [4] (5 min) is reported as at least 200 nM. The “oxidized low-density lipoprotein-induced pPKC levels” value in data set [10] is recorded as “inhibited”. Besides, in data set [5] (2 μM), the “reduced pPLB (T17), time from which observed” value is recorded as at least 15 min. Further, the “efficacy on pPLB expression in DPP8/DPP9 silenced cells” value in data set [5] (2 μM, 30 min) is listed as “abolished in DPP9 (but not DPP8) silenced cells”. In data set [5] (30 min), the “reduced pPLB expression, concentration from which observed” value is reported as at least 200 nM. Further, the Cmax – broadly, the highest concentration seen after dosing – in [11] was around 0.076 µM. Also, in [12], the “plasma Cmax” value is 0.024 µg/mL. Also, the membrane permeability entry in data set [13] is “significant membrane permeability”. For the same molecule, in [7], the “CaT relaxation (reciprocal of τCaT)” value is “impaired cardiac relaxation”.

Turning to `N[C@@H](CC(=O)N1CCn2c(nnc2C(F)(F)F)C1)Cc1cc(F)c(F)cc1F` [sitagliptin], in [9], the “action potential duration (APD, 90% repolarization)” value was “not”. Moreover, the “cellular uptake and localization (fluorescence)” value in data set [14] is “internalized by cardiomyocytes and localizes in the cytosol”. Also, the “effect on intracellular PKC activity” value in data set [2] (time course (2 μM) and concentration series (10 min)) is given as “no effect”. For the same molecule, the “effect on the hospitalization of HF” value in data set [15] is “did not show any effect”. The “effect on pCaMKII expression, time course” value in data set [4] (2 μM) is recorded as “failed to inhibit”. The “effect on CaMKII phosphorylation, concentration-dependent” value in [4] (up to 10 μM, 5 min) is listed as “no effect”. The “effect on PLB phosphorylation levels” value in data set [5] (time course (2 μM) and concentration series (30 min)) is given as “neither time- (Figure 2F) nor concentration-dependent experiments (Figure 2H) showed an effect”. In addition, the “effect on PKC activity” value in data set [16] is reported as “ineffective”. The membrane permeability entry in data set [13] was “significant membrane permeability”. Besides, the “CaT relaxation (reciprocal of τCaT)” value in [7] is “ineffective”.

Consider `N#C[C@@H]1CCCN1C(=O)CNC12CC3CC(CC(O)(C3)C1)C2` [vildagliptin], for which the membrane permeability result in data set [13] is “significant membrane permeability”.

The values above are taken from article PMC6246635 (Frontiers in Physiology, 2018).
